Several values for one entry are separate records, joined by “and”; a condition that tells them apart may be missing. Identical values can stand only once.
Test system: RAW264.7 cells
Assay: Cell viability measurement using MTT assay
Format: cell-based, mouse
Conditions: vs untreated group
Description: In order to evaluate a cell viability of the glycerol glucoside-based compound sample (EPS-S), an MTT assay was performed.
Specifically, subcultured RAW264.7 cells and HDF cells were aliquoted into a 96-well plate at 1×10^5, respectively, and cultured for 24 hours at 37° C. in an incubator containing 5% carbon dioxide, and then, a culture media was replaced with a serum-free media. Then, each sample was treated onto each cell by concentration. After culturing for 24 hours, an MTT solution was put into each well, reacted for 2 hours under light blocking, a supernatant was removed, a formed formazan was completely dissolved in DMSO, and an absorbance was measured at 540 nm with a microplate reader. In such a case, SDS was used as a positive control group. The test result value was calculated as in Equation 1 below and expressed as the cell viability compared to an untreated group, and was expressed as a mean±standard deviation.

## COCC(COC)OC1OC(CO)C(O)C(O)C1O (stereo not shown) [EPS-S]
24 h, 1 ppm
  cell viability: 103.36% and 103.36 ± 0.88%
24 h, 10 ppm
  cell viability: 104.47% and 104.47 ± 3.61%
24 h, 100 ppm
  cell viability: 108.58% and 108.58 ± 1.99%
24 h, 1,000 ppm
  cell viability: 113.79% and 113.79 ± 0.13%
